Measured values: PMC4580724 (Clinical Pharmacokinetics, 2015)
“And” between values parts separate entries of the source, which are not always exact repeats. Equal entries are not always repeated. Where two headings read alike, the source gives them in different places.

Experiments:
[1] = format: in vivo, human; settings: for AUC∞ geometric mean ratio test/reference (90 % CI) / C max geometric mean ratio test/reference (90 % CI): substrate + enzalutamide 160 mg/day vs substrate + placebo-to-match, n = 14
[2] = format: in vivo, human; settings: for t max: median [range]; for AUCτ: one 24-h dosing interval at steady state, 14 patients, enzalutamide 160 mg once daily for 49 days
CYP2B6 = settings: human hepatic microsomes; cited from earlier work
[3] = cited from earlier work
CYP2C19 = settings: human hepatic microsomes; cited from earlier work
[4] = cited from earlier work; remark: listed apart in the source
CYP2C8 = molecular target: T1, CYP2C8 (Homo sapiens, UniProt P10632); settings: human hepatic microsomes; cited from earlier work
T1 sequence (P10632 1-490): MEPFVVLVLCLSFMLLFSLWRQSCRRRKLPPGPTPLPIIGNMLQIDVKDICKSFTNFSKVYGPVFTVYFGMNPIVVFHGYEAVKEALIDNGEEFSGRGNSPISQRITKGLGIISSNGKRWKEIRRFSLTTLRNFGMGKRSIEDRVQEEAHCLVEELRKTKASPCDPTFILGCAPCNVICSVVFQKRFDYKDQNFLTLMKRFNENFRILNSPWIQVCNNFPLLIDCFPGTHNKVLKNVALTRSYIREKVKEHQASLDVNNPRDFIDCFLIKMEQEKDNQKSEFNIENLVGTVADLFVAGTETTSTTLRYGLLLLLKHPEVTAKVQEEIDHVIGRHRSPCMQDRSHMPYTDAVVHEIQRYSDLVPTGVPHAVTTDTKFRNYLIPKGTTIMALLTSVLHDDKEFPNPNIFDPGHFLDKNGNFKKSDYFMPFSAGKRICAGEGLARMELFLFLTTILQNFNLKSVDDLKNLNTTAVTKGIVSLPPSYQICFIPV

CYP2C9 = settings: human hepatic microsomes; cited from earlier work
[5] = Population pharmacokinetic modeling and simulation; parameters: species or system human; settings: with gemfibrozil vs enzalutamide alone
[6] = format: in vivo, human
CYP3A4 [7] = settings: human primary hepatocyte cultures; cited from earlier work
[8] = patients with mCRPC; cited from earlier work
[9] = cited from earlier work; remark: listed apart in the source
CYP3A4 [10] = experiment: Clinical effect of enzalutamide on CYP3A4; settings: enzalutamide 160 mg once daily; oral midazolam
[11] = arm 2
[12] = enzalutamide 160 mg/day vs placebo-to-match
[13] = 14 patients taking enzalutamide 160 mg once daily for 49 days, mean ± standard deviation
[14] = 14 patients taking enzalutamide 160 mg once daily for 49 days
[15] = with itraconazole vs enzalutamide alone, observed data
[16] = with itraconazole vs enzalutamide alone

**Q.** For `OCc1ncc2n1-c1ccc(Cl)cc1C(c1ccccc1F)=NC2` [1-Hydroxy-midalozam, 1-hydroxy-midazolam], which “decrease in AUC∞ by enzalutamide” value [1, 12] is on record?
**A.** 76%

**Q.** And the “AUC∞ geometric mean ratio test/reference (90 % CI)” value [1]?
**A.** 0.24 (0.20–0.28)

**Q.** And the “C max geometric mean ratio test/reference (90 % CI)” value [1]?
**A.** 0.29 (0.24–0.35)

**Q.** With `COc1ccc2nc([S+]([O-])Cc3ncc(CO)c(OC)c3C)[nH]c2c1` (stereo not drawn) [5-Hydroxy-omeprazole] as the compound, how does the “decrease in AUC∞ by enzalutamide” value [1, 12] read?
**A.** 54%

**Q.** And the “AUC∞ geometric mean ratio test/reference (90 % CI)” value [1]?
**A.** 0.46 (0.39–0.53)

**Q.** What about the “C max geometric mean ratio test/reference (90 % CI)” value [1] of the same compound?
**A.** 0.64 (0.50–0.83)

**Q.** Which results are given for `CC(=O)C[C@@H](c1ccccc1)c1c(O)c2ccc(O)cc2oc1=O` [7-Hydroxy-S-warfarin]?
**A.** decrease in AUC∞ by enzalutamide [1, 12]: 53%; AUC∞ geometric mean ratio test/reference (90 % CI) [1]: 0.47 (0.35–0.63); C max geometric mean ratio test/reference (90 % CI) [1]: 0.83 (0.71–0.99)

**Q.** Which C max [2, 13] does the source give for `CC1(C)C(=O)N(c2ccc(C#N)c(C(F)(F)F)c2)C(=S)N1c1ccc(C(=O)O)c(F)c1` [Carboxylic acid metabolite] here?
**A.** 8860 ± 6520 ng/mL

**Q.** What about the C trough [2, 13] of the same compound?
**A.** 6320 ± 5190 ng/mL

**Q.** And the t max [2, 14]?
**A.** 3.5 [0.0–24.0] h

**Q.** And the AUCτ ([2]; mean ± standard deviation)?
**A.** 193 ± 144 µg·h/mL

**Q.** What about the “inhibition of CYP2B6” value (CYP2B6) of the same compound?
**A.** lesser inhibitory effects

**Q.** And the “plasma concentrations lower than enzalutamide” value ([3]; circulating concentrations)?
**A.** approximately 25%

**Q.** And the “inhibition of CYP2C19” value (CYP2C19)?
**A.** may act as inhibitors

**Q.** What about the “pharmacological activity (primary and secondary pharmacodynamics)” value [4] of the same compound?
**A.** pharmacologically inactive

**Q.** And the “inhibition of CYP2C8” value (CYP2C8)?
**A.** may act as inhibitors

**Q.** And the “inhibition of CYP2C9” value (CYP2C9)?
**A.** lesser inhibitory effects

**Q.** With `CNC(=O)c1ccc(N2C(=S)N(c3ccc(C#N)c(C(F)(F)F)c3)C(=O)C2(C)C)cc1F` [Enzalutamide, enzalutamide, reference compound] as the compound, how does the C trough [2, 13] read?
**A.** 12000 ± 3510 ng/mL

**Q.** What about the CL/F [2, 13] of the same compound?
**A.** 0.52 ± 0.09 L/h

**Q.** What about the concentration at 49 d ([2]; human, plasma, oral, 160 mg once daily) of the same compound?
**A.** 12000 ng/mL

**Q.** And the Cmax ([2]; human, plasma, oral, 160 mg, C max, 14 patients taking enzalutamide 160 mg once daily for 49 days, mean ± standard deviation)?
**A.** ~17000 ng/mL

**Q.** What about the “increase in AUC∞” value [5] of the same compound?
**A.** 4.26 fold

**Q.** What about the “inhibition of CYP2B6” value (CYP2B6) of the same compound?
**A.** lesser inhibitory effects

**Q.** And the “increase in AUC∞” value [6, 15]?
**A.** 1.41 fold

**Q.** What about the “inhibition of CYP2C19” value (CYP2C19) of the same compound?
**A.** may act as inhibitors

**Q.** And the “induction of CYP3A4 messenger RNA and enzymatic activity” value (CYP3A4 [7])?
**A.** may cause increases in messenger RNA and enzymatic activity for CYP3A4

**Q.** And the maximum tolerated dose [8]?
**A.** 240 mg/day

**Q.** And the “inhibition of CYP2C8” value (CYP2C8)?
**A.** may act as inhibitors

**Q.** And the “inhibition of CYP2C9” value (CYP2C9)?
**A.** lesser inhibitory effects

**Q.** What about the aqueous solubility [9] of the same compound?
**A.** ≤ 2.0 µg/mL

**Q.** What about the CYP3A4 induction classification (CYP3A4 [10]) of the same compound?
**A.** strong inducer

**Q.** With `CC(O)c1ccc(CCOc2ccc(CC3SC(=O)NC3=O)cc2)nc1` (stereo not drawn) [Hydroxy-pioglitazone (M-IV), Hydroxy-pioglitazone] as the compound, how does the “decrease in AUC∞ by enzalutamide” value [1, 12] read?
**A.** 37%

**Q.** And the “AUC∞ geometric mean ratio test/reference (90 % CI)” value [1]?
**A.** 0.63 (0.52–0.77)

**Q.** And the “C max geometric mean ratio test/reference (90 % CI)” value [1]?
**A.** 0.60 (0.52–0.70)

**Q.** With `CC1(C)C(=O)N(c2ccc(C#N)c(C(F)(F)F)c2)C(=S)N1c1ccc(C(N)=O)c(F)c1` [N-desmethyl enzalutamide] as the compound, how does the C max [2, 13] read?
**A.** 12700 ± 3770 ng/mL

**Q.** And the C trough [2, 13]?
**A.** 10600 ng/mL and 10600 ± 3270 ng/mL

**Q.** And the t max [2, 14]?
**A.** 4.0 [0.0–24.0] h

**Q.** And the AUCτ ([2]; mean ± standard deviation)?
**A.** 278 ± 85.5 µg·h/mL

**Q.** What about the “decrease in AUC∞” value [5] of the same compound?
**A.** 25%

**Q.** And the “inhibition of CYP2B6” value (CYP2B6)?
**A.** lesser inhibitory effects

**Q.** And the “decrease in Cmax” value ([6]; with gemfibrozil vs enzalutamide alone)?
**A.** 44%

**Q.** And the “decrease in AUC18 d” value ([6]; with gemfibrozil vs enzalutamide alone, observed data)?
**A.** 67%

**Q.** And the “decrease in AUC18 d” value [6, 16]?
**A.** 4%

**Q.** And the “decrease in Cmax” value [6, 16]?
**A.** 14%

**Q.** And the “increase in AUC∞” value [6, 15]?
**A.** 1.21 fold

**Q.** What about the “circulating plasma concentrations relative to enzalutamide” value [3] of the same compound?
**A.** approximately the same plasma concentrations as enzalutamide

**Q.** What about the “inhibition of CYP2C19” value (CYP2C19) of the same compound?
**A.** may act as inhibitors

**Q.** What about the “inhibition of CYP2C8” value (CYP2C8) of the same compound?
**A.** may act as inhibitors

**Q.** And the “inhibition of CYP2C9” value (CYP2C9)?
**A.** lesser inhibitory effects

**Q.** Which “decrease in AUC∞ by enzalutamide” value [1, 12] does the source give for `CC(=O)C[C@H](c1ccccc1)c1c(O)c2ccccc2oc1=O` [R-warfarin, reference compound] here?
**A.** 45%

**Q.** With `CC(=O)C[C@@H](c1ccccc1)c1c(O)c2ccccc2oc1=O` [S-warfarin, reference compound] as the compound, how does the “decrease in AUC∞ by enzalutamide” value [1, 12] read?
**A.** 56%

**Q.** With `Cc1ccc(C)c(OCCCC(C)(C)C(=O)O)c1` [gemfibrozil] as the compound, how does the “adverse event above NCI-CTCAE grade 1 with possible relationship” value [11] read?
**A.** grade 2 flatulence in one subject

**Q.** What does the source list for `Cc1ncc2n1-c1ccc(Cl)cc1C(c1ccccc1F)=NC2` [midazolam, reference compound]?
**A.** decrease in AUC∞ by enzalutamide [1, 12]: 86%; AUC∞ geometric mean ratio test/reference (90 % CI) [1]: 0.14 (0.12–0.17); C max geometric mean ratio test/reference (90 % CI) [1]: 0.23 (0.20–0.27)

**Q.** What does the source list for `COc1ccc2[nH]c([S+]([O-])Cc3ncc(C)c(OC)c3C)nc2c1` (stereo not drawn) [omeprazole, reference compound]?
**A.** decrease in AUC∞ by enzalutamide [1, 12]: 70%; AUC∞ geometric mean ratio test/reference (90 % CI) [1]: 0.30 (0.24–0.36); C max geometric mean ratio test/reference (90 % CI) [1]: 0.38 (0.26–0.54)

**Q.** Which “increase in AUC∞ by enzalutamide” value [1, 12] does the source give for `CCc1ccc(CCOc2ccc(CC3SC(=O)NC3=O)cc2)nc1` (stereo not drawn) [pioglitazone, reference compound] here?
**A.** 20%

**Q.** And the “AUC∞ geometric mean ratio test/reference (90 % CI)” value [1]?
**A.** 1.20 (0.98–1.47)

**Q.** What about the “C max geometric mean ratio test/reference (90 % CI)” value [1] of the same compound?
**A.** 0.82 (0.67–1.01)
